Source: patent publication US8703805B2 (Exelixis Patent Company LLC, priority 2005, dated 2014)
pEC50: −log10 of the molar value.

test system: LXRα and/or LXRβ; assay: LXR/LXRE co-transfection assay (luciferase reporter, CV-1 cells); assay type: cell-based, human; conditions: IC50 or EC50 for LXR (LXRα and/or LXRβ, not distinguished), tested as described in Example 109, CV-1 cells
Description: To measure the ability of compounds to activate or inhibit the transcriptional activity of LXR in a cell based assay, the co-transfection assay was used. It has been shown that LXR functions as a heterodimer with RXR. For the co-transfection assay; expression plasmids for LXR and RXR are introduced via transient transfection into mammalian cells along with a luciferase reporter plasmid that contains one copy of a DNA sequence that is bound by LXR-RXR heterodimers (LXRE; Willy, P. ad. 1995). Treatment of transfected cells with an LXR agonist increases the transcriptional activity of LXR, which is measured by an increase in luciferase activity.
CV-1 African Green Monkey Kidney Cells Co-transfection expression plasmids, comprising full-length LXRα (pCMX-h LXRα, LXRβ (pCMX-hLXRβ), or RXRα (pCMX-RXR), reporter plasmid (LXREx1-Tk-Luciferase), and control (pCMX-Galactosidase expression vector) (Willey et al. Genes & Development 91033-1045 (1995)). Transfection reagent such as FuGENE6 (Roche). 1× Cell lysis buffer (1% Triton X 100 (IT Baker X200-07), 10% Glycerol (JT Baker M778-07), 5 mM Ditriotreitol (Quantum Bioprobe DTT03; add fresh before lysing), 1 mM EGTA (Ethylene Glycol-bis(B-Amino ethyl ether)-N,N,N′,N′-Tetracetic Acid) (Sigma E-4378), 25 mM Tricine (ICN 807420) pH 7.8) 1× Luciferase assay buffer (pH at 7.8) (0.73 mM ATP, 22.3 mM Tricine, 0.11 mM EDTA, 33.3 mM DTT) 1× Luciferrin/CoA (11 mM Luciferin, 3.05 mM Coenzyme A, 10 mM HEPES) Preparation of Screening Reagents
CV-1 cells were prepared 24 hours prior to the experiment by plating them into T-175 flasks or 500 cm^2 dishes in order to achieve 70-80% confluency on the day of the transfection. The number of cells to be transfected was determined by the number of plates to be screened. each 384 well plate requires 1.92×10^6 cells or 5000 cells per well. DNA Transfection Reagent was prepared by mixing the required plasmid DNAs with a cationic lipid transfection reagent FuGENE6 (Roche) by following the instructions provided with the reagents. Optimal DNA amounts were determined empirically per cell line and size of vessel to be transfected. 10-12 mL of media was added to the DNA Transfection Reagent and this mixture was added to the cells after aspirating media from the T175 cm^2 flask. Cells were then incubated at least 5 hours at 37° C. to prepare screening cells.
Luciferase assay reagent was prepared by combining before use (per 10 mL): […], 0.54 mL of 1× Luciferrin/CoA; 0.54 mL of 0.2 M Magnesium sulfate
Assay plates were prepared by dispensing 5 μL of compound per well of a 384 well plate to achieve final compound concentration of 10 μM and no more than 1% DMSO. Media was removed from the screening cells, the cells trypsinized, harvested cells by centrifugation, counted, and plated at a density of approximately 5000 cells per well in the 384 well assay plate prepared above in a volume of about 45 μL. Assay plates containing both compounds and screening cells (50 μL in total volume) were incubated for 20 hours at 37° C.
After incubation with compounds, media was removed from the cells and lysis buffer (30 μL/well) added. After 30 minutes at ambient temperature, luciferase assay buffer (30 μL/well) was added and the assay plates read on a luminometer (PE Biosystems Northstar reader with on-board injectors, or equivalent). Plates were read immediately after addition of luciferase assay buffer.
The LXR/LXRE co-transfection assay can be used to establish the EC50/IC50 values for potency and percent activity or inhibition for efficacy. Efficacy defines the activity of a compound relative to a high control ((N-(3-((4-fluorophenyl)-(naphthalene-2-sulfonyl)amino)propyl)-2,2-dimethylpropionamide)) or a low control (DMSO/vehicle). The dose response curves are generated from an 8 point curve with concentrations differing by ½ LOG units. each point represents the average of 4 wells of data from a 384 well plate. […]

Compound | pEC50
FC(F)(F)c1cc(-c2cccc(OCCN3CCOCC3)c2)n(-c2ccccc2Cl)n1 [Example 67, 4-(2-(3-(1-(2-chlorophenyl)-3-(trifluoromethyl)-1H-pyrazol-5-yl)phenoxy)-ethyl)morpholine] | 5.00 to 6.00
CS(=O)(=O)CCN1CCN(C(=O)c2ccc(-c3cc(C(F)(F)F)nn3-c3ccccc3Cl)cc2)CC1 [Example 1365, 1-({4-[1-(2-chlorophenyl)-3-(trifluoromethyl)-1H-pyrazol-5-yl]phenyl}carbonyl)-4-[2-(methylsulfonyl)ethyl]piperazine] | 5.00 to 6.00
CC(C)(O)c1cc(-c2ccc(-c3cccc(S(C)(=O)=O)c3)s2)n(-c2ncccc2F)n1 [Example 1272, 2-[1-(3-fluoropyridin-2-yl)-5-{5-[3-(methylsulfonyl)phenyl]-2-thienyl}-1H-pyrazol-3-yl]propan-2-ol] | 5.00 to 6.00
CC(C)(O)c1cc(-c2ccc(-c3cccc(S(C)(=O)=O)c3)s2)n(-c2cc(Cl)cc(Cl)c2)n1 [Example 1323, 2-[1-(3,5-dichlorophenyl)-5-{5-[3-(methylsulfonyl)phenyl]-2-thienyl}-1H-pyrazol-3-yl]propan-2-ol] | 5.00 to 6.00
CC(C)c1cccc(-c2ccc(-c3cc(C(C)(C)O)nn3-c3ccccc3Cl)s2)c1 [Example 1332, 2-[1-(2-chlorophenyl)-5-{5-[3-(1-methylethyl)phenyl]-2-thienyl}-1H-pyrazol-3-yl]propan-2-ol] | 5.00 to 6.00
CC(C)(O)c1cc(-c2ccc(-c3cccc(S(C)(=O)=O)c3)s2)n(-c2cccc(F)c2)n1 [Example 1258, 2-[1-(3-fluorophenyl)-5-{5-[3-(methylsulfonyl)phenyl]-2-thienyl}-1H-pyrazol-3-yl]propan-2-ol] | 5.00 to 6.00
CS(=O)(=O)c1cccc(-c2ccc(-c3cc(C4(C#N)CC4)nn3-c3ccccc3Cl)s2)c1 [Example 1188, 1-[1-(2-chlorophenyl)-5-{5-[3-(methylsulfonyl)phenyl]-2-thienyl}-1H-pyrazol-3-yl]cyclopropanecarbonitrile] | > 6.00
CC(C)(O)c1cc(-c2ccc(-c3cccc(OC(F)(F)F)c3)s2)n(-c2ccccc2Cl)n1 [Example 1274, 2-[1-(2-chlorophenyl)-5-(5-{3-[(trifluoromethyl)oxy]phenyl}-2-thienyl)-1H-pyrazol-3-yl]propan-2-ol] | 5.00 to 6.00
CN(C)CCN(C)C(=O)c1cc(-c2ccc(-c3cccc(S(C)(=O)=O)c3)s2)n(-c2ccccc2Cl)n1 [Example 1144, 1-(2-chlorophenyl)-N-[2-(dimethylamino)ethyl]-N-methyl-5-{5-[3-(methylsulfonyl)phenyl]-2-thienyl}-1H-pyrazole-3-carboxamide] | 5.00 to 6.00
O=C(c1ccc(-c2cc(C(F)(F)F)nn2-c2ccccc2Cl)cc1)N1CCCC1CO (stereo not shown) [Example 1000, [1-({4-[1-(2-chlorophenyl)-3-(trifluoromethyl)-1H-pyrazol-5-yl]phenyl}carbonyl)pyrrolidin-2-yl]methanol] | 5.00 to 6.00

Continued, values first:

pEC50 | Compound
5.00 to 6.00 | CS(=O)(=O)c1cccc(-c2ccc(-c3cc(Cc4nnn[nH]4)nn3-c3ccccc3Cl)s2)c1 [Example 1136, 5-{[1-(2-chlorophenyl)-5-{5-[3-(methylsulfonyl)phenyl]-2-thienyl}-1H-pyrazol-3-yl]methyl}-1H-tetrazole]
> 6.00 | Cc1cc(-c2cccc(S(C)(=O)=O)c2)ccc1-n1nc(C(C)(C)O)c(Cl)c1-c1ccccc1Cl [Example 1422, 2-(4-chloro-5-(2-chlorophenyol)-1-(3-methyl-3′-(methylsulfonyl)biphenyl-4-yl)-1H-pyrazol-3-yl)propan-2-ol]
5.00 to 6.00 | O=C(O)CNC(=O)c1ccc(-c2cc(C(F)(F)F)nn2-c2ccccc2Cl)cc1 [Example 1362, N-({4-[1-(2-chlorophenyl)-3-(trifluoromethyl)-1H-pyrazol-5-yl]phenyl}carbonyl)glycine]
5.00 to 6.00 | O=C(O)Cc1ccc(F)c(-c2ccc(-c3cc(C(F)(F)F)nn3-c3ncccc3C(F)(F)F)s2)c1 [Example 1152, [4-fluoro-3-(5-{3-(trifluoromethyl)-1-[3-(trifluoromethyl)pyridin-2-yl]-1H-pyrazol-5-yl}-2-thienyl)phenyl]acetic acid]
> 6.00 | NS(=O)(=O)c1cccc(-c2ccc(-c3cc(C(F)(F)F)nn3-c3cc(Cl)ccc3Oc3ccccc3)s2)c1 [Example 1198, 3-(5-{1-[5-chloro-2-(phenyloxy)phenyl]-3-(trifluoromethyl)-1H-pyrazol-5-yl}-2-thienyl)benzenesulfonamide]
5.00 to 6.00 | CC(C)(O)c1cc(-c2ccc(-c3cccc(S(C)(=O)=O)c3)s2)n(-c2ccccn2)n1 [Example 1264, 2-(5-{5-[3-(methylsulfonyl)phenyl]-2-thienyl}-1-pyridin-2-yl-1H-pyrazol-3-yl)propan-2-ol]
> 6.00 | CC(C)(O)c1cc(-c2ccc(-c3cccc(S(C)(=O)=O)c3)s2)n(-c2ccccc2C(F)(F)F)n1 [Example 1158, 2-(5-{5-[3-(methylsulfonyl)phenyl]-2-thienyl}-1-[2-(trifluoromethyl)phenyl]-1H-pyrazol-3-yl)propan-2-ol]
> 6.00 | CC(C)S(=O)(=O)c1cccc(-c2ccc(-c3cc(C(C)(C)O)nn3-c3ccccc3Cl)s2)c1 [Example 1185, 2-[1-(2-chlorophenyl)-5-(5-{3-[(1-methylethyl)sulfonyl]phenyl}-2-thienyl)-1H-pyrazol-3-yl]propan-2-ol]
> 6.00 | CC(C)(O)c1nn(-c2ccccc2F)c(-c2ccc(-c3cccc(S(C)(=O)=O)c3)s2)c1Cl [Example 23]
> 6.00 | CC(C)(O)c1nn(-c2c(Cl)cccc2Cl)c(-c2ccc(-c3cccc(S(C)(=O)=O)c3)s2)c1Cl [Example 1348, 2-[4-chloro-1-(2,6-dichlorophenyl)-5-{5-[3-(methylsulfonyl)phenyl]-2-thienyl}-1H-pyrazol-3-yl]propan-2-ol]
> 6.00 | Cc1cc(-c2cccc(S(C)(=O)=O)c2)ccc1-c1cc(C(=O)N2CCCC2)nn1-c1c(Cl)cccc1Cl [Example 148, (1-(2,6-dichlorophenyl)-5-(3-methyl-3′-(methylsulfonyl)biphenyl-4-yl)-1H-pyrazol-3-yl)(pyrrolidin-1-yl)methanone]
> 6.00 | CC(O)(c1cc(-c2ccc(-c3cccc(S(C)(=O)=O)c3)s2)n(-c2ccccc2Cl)n1)C(F)(F)F (stereo not shown) [Example 1181, 2-[1-(2-chlorophenyl)-5-{5-[3-(methylsulfonyl)phenyl]-2-thienyl}-1H-pyrazol-3-yl]-1,1,1-trifluoropropan-2-ol]
> 6.00 | CS(=O)(=O)c1cccc(-c2ccc(-c3cc(C(=O)NCC(F)(F)F)nn3-c3ccccc3C(F)(F)F)s2)c1 [Example 1195, 5-{5-[3-(methylsulfonyl)phenyl]-2-thienyl}-N-(2,2,2-trifluoroethyl)-1-[2-(trifluoromethyl)phenyl]-1H-pyrazole-3-carboxamide]
> 6.00 | CC(C)(O)c1cc(-c2ccc(-c3cccc(S(C)(=O)=O)c3)s2)n(-c2ccccc2Br)n1 [Example 1320, 2-[1-(2-bromophenyl)-5-{5-[3-(methylsulfonyl)phenyl]-2-thienyl}-1H-pyrazol-3-yl]propan-2-ol]
> 6.00 | COC(=O)c1cc(-c2ccc(-c3cccc(S(C)(=O)=O)c3)cn2)n(-c2ccccc2Cl)n1 [Example 118, methyl 1-(2-chlorophenyl)-5-(5-(3-(methylsulfonyl)phenyl)pyridin-2-yl)-1H-pyrazole-3-carboxylate]
